Data from article PMC11578424, “Discovery of novel 2,4-diarylaminopyrimidine hydrazone derivatives as potent anti-thyroid cancer agents capable of inhibiting FAK” (Journal of Enzyme Inhibition and Medicinal Chemistry, 2024).
Like-named read-outs stand apart in the source and are kept apart here.

Columns and labels:
[1] = system: thyroid cancer cells TPC-1; assay: MTT antiproliferative assay; format: cell-based; details: MTT assay, 48 h, average with SD (n = 3, duplicate), read-out: IC50 (μM), antiproliferative activity against thyroid cancer cells TPC-1
Procedure: Thyroid cancer cells TCP-1 were provided by Wuhan Servicebio Co., Ltd. TCP-1 cells are cultured in RPMI-1640 medium supplemented with 10% foetal bovine serum (FBS), 100 U/mL penicillin, and 0.1 mg/mL streptomycin. All cells are maintained in a humidified incubator at 37 °C with 5% CO2.
The TCP-1 cell line is seeded into a 96-well plate and incubated under conditions of 37 °C and 5% CO2. After the cells adhere, different concentrations of compounds are added and the incubation continues for 48 h under the same conditions. Subsequently, MTT reagent is added to the medium and the incubation is continued for an additional 4 h at 37 °C. After the incubation, the medium is aspirated, and 150 μL of DMSO solution is added to dissolve the purple-blue crystals by shaking. The absorbance of the solution is measured at a wavelength of 490 nm. The IC50 value of the compounds is calculated using SPSS software version 20.0.

MCF7 cells = details: cited from earlier work

Structure (SMILES)	IC50 ([1]; Homo sapiens, TPC1, 48 h) [µM]	melting point [°C]	IC50 [1] [µM]	IC50 (MCF7 cells; read-out: IC50, antiproliferative activity against MCF7 cells) [nM]	IC50 (MCF7 cells; read-out: IC50, proliferative activity of MCF7 cells) [nM]
CNC(=O)c1ccccc1Nc1nc(N/N=C/c2ccc(Cl)cc2)ncc1Cl [14 g, (E)-2-((5-chloro-2–(2-(4-chlorobenzylidene)hydrazineyl)pyrimidin-4-yl)amino)-N-methylbenzamide]	0.409 ± 0.093	194.1 to 195.8			
CNC(=O)c1ccccc1Nc1nc(N/N=C/c2cccc(F)c2)ncc1Cl [14 l, (E)-2-((5-chloro-2–(2-(3-fluorobenzylidene)hydrazineyl)pyrimidin-4-yl)amino)-N-methylbenzamide]	0.428 ± 0.009	203.3 to 205.1			
CNC(=O)c1ccccc1Nc1nc(N/N=C/c2cccc(C(F)(F)F)c2)ncc1Cl [14 m, (E)-2-((5-chloro-2–(2-(3-(trifluoromethyl)benzylidene)hydrazineyl)pyrimidin-4-yl)amino)-N-methylbenzamide]	0.693 ± 0.017	207.1 to 209.8			
CNC(=O)c1ccccc1Nc1nc(N/N=C/c2ccncc2)ncc1Cl [14 u, (E)-2-((5-chloro-2–(2-(pyridin-4-ylmethylene)hydrazineyl)pyrimidin-4-yl)amino)-N-methylbenzamide]	0.189 ± 0.005	215.1 to 216.8			
CNC(=O)c1ccccc1Nc1nc(N/N=C/c2cn(C)c3ccccc23)ncc1Cl [14 y]	0.425 ± 0.023	217.2 to 219.1			
CNC(=O)c1ccccc1Nc1nc(N/N=C/c2ccccc2)ncc1Cl [14a, (E)-2-((2–(2-benzylidenehydrazineyl)-5-chloropyrimidin-4-yl)amino)-N-methylbenzamide]	0.306	199.1 to 202.1	0.246 ± 0.038		
CNC(=O)c1ccccc1Nc1nc(N/N=C/c2ccc3[nH]ccc3c2)ncc1Cl [14aa, (E)-2-((2–(2-((1H-indol-5-yl)methylene)hydrazineyl)-5-chloropyrimidin-4-yl)amino)-N-methylbenzamide]	0.331 ± 0.012	218.1 to 219.9			
CNC(=O)c1ccccc1Nc1nc(N/N=C/c2ccc3cc[nH]c3c2)ncc1Cl [14ab, (E)-2-((2–(2-((1H-indol-6-yl)methylene)hydrazineyl)-5-chloropyrimidin-4-yl)amino)-N-methylbenzamide]	0.364 ± 0.015	216.1 to 217.7			
CNC(=O)c1ccccc1Nc1nc(N/N=C(\C)c2ccc(OC)cc2)ncc1Cl [14ac, (E)-2-((5-chloro-2–(2-(1–(4-methoxyphenyl)ethylidene)hydrazineyl)pyrimidin-4-yl)amino)-N-methylbenzamide]	0.612 ± 0.016	216.7 to 217.1			
CNC(=O)c1ccccc1Nc1nc(N/N=C(\C)c2ccc(F)cc2)ncc1Cl [14ad, (E)-2-((5-chloro-2–(2-(1–(4-fluorophenyl)ethylidene)hydrazineyl)pyrimidin-4-yl)amino)-N-methylbenzamide]	1.46 ± 0.066	222.6 to 223.8			
CNC(=O)c1ccccc1Nc1nc(N/N=C/c2ccc(C)cc2)ncc1Cl [14b, (E)-2-((5-chloro-2–(2-(4-methylbenzylidene)hydrazineyl)pyrimidin-4-yl)amino)-N-methylbenzamide]	0.296 ± 0.021	207.1 to 208.1			
CNC(=O)c1ccccc1Nc1nc(N/N=C/c2ccc(OC)cc2)ncc1Cl [14c, (E)-2-((5-chloro-2–(2-(4-methoxybenzylidene)hydrazineyl)pyrimidin-4-yl)amino)-N-methylbenzamide]	0.257 ± 0.004	187.7 to 188.9			
CNC(=O)c1ccccc1Nc1nc(N/N=C/c2ccc(O)cc2)ncc1Cl [14d, (E)-2-((5-chloro-2–(2-(4-hydroxybenzylidene)hydrazineyl)pyrimidin-4-yl)amino)-N-methylbenzamide]	0.255 ± 0.025	187.8 to 189.2			
CNC(=O)c1ccccc1Nc1nc(N/N=C/c2ccc(C(F)(F)F)cc2)ncc1Cl [14e, (E)-2-((5-chloro-2–(2-(4-(trifluoromethyl)benzylidene)hydrazineyl)pyrimidin-4-yl)amino)-N-methylbenzamide]	0.193 ± 0.029	206.6 to 208.8			
CNC(=O)c1ccccc1Nc1nc(N/N=C/c2ccc(Br)cc2)ncc1Cl [14h, (E)-2-((2–(2-(4-bromobenzylidene)hydrazineyl)-5-chloropyrimidin-4-yl)amino)-N-methylbenzamide]	0.59 ± 0.024	192.1 to 193.2			
CNC(=O)c1ccccc1Nc1nc(N/N=C/c2ccc([N+](=O)[O-])cc2)ncc1Cl [14i, (E)-2-((5-chloro-2–(2-(4-nitrobenzylidene)hydrazineyl)pyrimidin-4-yl)amino)-N-methylbenzamide]	0.157 ± 0.008	201.7 to 202.8			

Structure (SMILES)	IC50 ([1]; Homo sapiens, TPC1, 48 h) [µM]	melting point [°C]	IC50 [1] [µM]	IC50 (MCF7 cells; read-out: IC50, antiproliferative activity against MCF7 cells) [nM]	IC50 (MCF7 cells; read-out: IC50, proliferative activity of MCF7 cells) [nM]
CNC(=O)c1ccccc1Nc1nc(N/N=C/c2ccc(C#N)cc2)ncc1Cl [14j, (E)-2-((5-chloro-2–(2-(4-cyanobenzylidene)hydrazineyl)pyrimidin-4-yl)amino)-N-methylbenzamide]	0.126 ± 0.011	200.7 to 202.1			
CNC(=O)c1ccccc1Nc1nc(N/N=C/c2cccc(OC)c2)ncc1Cl [14k, (E)-2-((5-chloro-2–(2-(3-methoxybenzylidene)hydrazineyl)pyrimidin-4-yl)amino)-N-methylbenzamide]	0.517 ± 0.031	199.3 to 200.4			
CNC(=O)c1ccccc1Nc1nc(N/N=C/c2ccc(OC)cc2OC)ncc1Cl [14n, (E)-2-((5-chloro-2–(2-(2,4-dimethoxybenzylidene)hydrazineyl)pyrimidin-4-yl)amino)-N-methylbenzamide]		213.1 to 214.7			
CNC(=O)c1ccccc1Nc1nc(N/N=C/c2ccc(OC)c(OC)c2)ncc1Cl [14o, (E)-2-((5-chloro-2–(2-(3,4-dimethoxybenzylidene)hydrazineyl)pyrimidin-4-yl)amino)-N-methylbenzamide]	0.434 ± 0.012	214.1 to 215.2			
CNC(=O)c1ccccc1Nc1nc(N/N=C/c2ccc(OC)cc2F)ncc1Cl [14p, (E)-2-((5-chloro-2–(2-(2-fluoro-4-methoxybenzylidene)hydrazineyl)pyrimidin-4-yl)amino)-N-methylbenzamide]	0.228 ± 0.065	218.1 to 219.4			
CNC(=O)c1ccccc1Nc1nc(N/N=C/c2ccc(OC)c(F)c2)ncc1Cl [14q, (E)-2-((5-chloro-2–(2-(3-fluoro-4-methoxybenzylidene)hydrazineyl)pyrimidin-4-yl)amino)-N-methylbenzamide]	0.386 ± 0.047	234.1 to 235.7			
CNC(=O)c1ccccc1Nc1nc(N/N=C/c2ccc(F)cc2F)ncc1Cl [14r, (E)-2-((5-chloro-2–(2-(2,4-difluorobenzylidene)hydrazineyl)pyrimidin-4-yl)amino)-N-methylbenzamide]	0.122 ± 0.032	243.2 to 245.1			
CNC(=O)c1ccccc1Nc1nc(N/N=C/c2ccccn2)ncc1Cl [14s, (E)-2-((5-chloro-2–(2-(pyridin-2-ylmethylene)hydrazineyl)pyrimidin-4-yl)amino)-N-methylbenzamide]	0.272 ± 0.016	217.1 to 218.2			
CNC(=O)c1ccccc1Nc1nc(N/N=C/c2cccnc2)ncc1Cl [14t, (E)-2-((5-chloro-2–(2-(pyridin-3-ylmethylene)hydrazineyl)pyrimidin-4-yl)amino)-N-methylbenzamide]	0.243 ± 0.001	217.1 to 218.1			
CNC(=O)c1ccccc1Nc1nc(N/N=C/c2cccs2)ncc1Cl [14v, (E)-2-((5-chloro-2–(2-(thiophen-2-ylmethylene)hydrazineyl)pyrimidin-4-yl)amino)-N-methylbenzamide]	0.153 ± 0.005	214.6 to 216.1			
CNC(=O)c1ccccc1Nc1nc(N/N=C/c2ccc3cccnc3c2)ncc1Cl [14w, (E)-2-((5-chloro-2–(2-(quinolin-7-ylmethylene)hydrazineyl)pyrimidin-4-yl)amino)-N-methylbenzamide]	0.413 ± 0.015	241.7 to 242.1			
CNC(=O)c1ccccc1Nc1nc(N/N=C/c2c[nH]c3ccccc23)ncc1Cl [14x, (E)-2-((2–(2-((1H-indol-3-yl)methylene)hydrazineyl)-5-chloropyrimidin-4-yl)amino)-N-methylbenzamide]	0.357 ± 0.01	203.3 to 204.8			
CNC(=O)c1ccccc1Nc1nc(N/N=C/c2c[nH]c3ccc(OC)cc23)ncc1Cl [14z, (E)-2-((5-chloro-2–(2-((5-methoxy-1H-indol-3-yl)methylene) hydrazineyl)pyrimidin-4-yl)amino)-N-methylbenzamide]	0.624 ± 0.044	217.1 to 218.2			
CNC(=O)c1ccccc1Nc1nc(Nc2ccc(N3CCOCC3)cc2OC)ncc1Cl [TAE-226, reference compound]	1.08 ± 0.023				
C/C(=N\N=c1/[nH]c2cc(F)c(F)cc2n1C)c1ncccn1 [compound 8]				3.3	
Cn1c2nc(N/N=C/c3cccc(Br)c3)nc(=O)c-2cc2ccccc21 [compound 9]					0.1
